The values below come from ChEMBL document CHEMBL4118066, “QSAR-driven design, synthesis and discovery of potent chalcone derivatives with antitubercular activity” (Eur J Med Chem, 2017).

≈ marks a conversion by molar mass, not a printed value.

This test deals with Mycobacterium tuberculosis variant bovis. Kind of test: microbe, parasite or virus in culture. Conditions: ATCC 35734, 168 h. The format is functional.
`O=C(/C=C/c1ccc([N+](=O)[O-])s1)c1ccc(-n2ccnc2)cc1` showed an MIC90 of 0.23 µM (≈ 0.0748 µg/mL).
To `CC(C)(C)c1ccc(C(=O)/C=C/c2ccc[nH]2)cc1` belongs > 10 µM; to `O=C(/C=C/c1ccco1)c1ccc(N2CCCCC2)cc1`, > 10 µM.
With `O=C(/C=C/c1ccc(Cl)s1)c1ccc(-n2ccnc2)cc1`, the MIC90 is 9.52 µM (≈ 3 µg/mL).
On to `O=C(/C=C/c1ccc([N+](=O)[O-])o1)c1ccc(-c2ccccc2)cc1`, for which the MIC90 was found to be 0.59 µM (≈ 0.188 µg/mL).
To `CSc1ccc(C(=O)/C=C/c2ccc([N+](=O)[O-])s2)cc1` belongs 0.56 µM (≈ 0.171 µg/mL).
To `CSc1ccc(C(=O)/C=C/c2ccc([N+](=O)[O-])o2)cc1` belongs 0.26 µM (≈ 0.0752 µg/mL); to `Cc1cccc(C(=O)/C=C/c2ccc([N+](=O)[O-])o2)c1`, > 10 µM.
To `CN(C)c1ccc(/C=C/C(=O)c2ccc(-c3ccccc3)cc2)cc1` belongs > 10 µM; to `O=C(/C=C/c1ccc([N+](=O)[O-])o1)c1ccc(N2CCCC2)cc1`, 2.18 µM (≈ 0.681 µg/mL); to `Cc1ccc(C(=O)/C=C/c2ccc([N+](=O)[O-])s2)cc1`, 0.98 µM (≈ 0.268 µg/mL).
Compound `Cc1ccccc1C(=O)/C=C/c1ccc([N+](=O)[O-])o1` showed an MIC90 of 0.27 µM (≈ 0.0695 µg/mL).
To `O=C(/C=C/c1cccc([N+](=O)[O-])c1)c1ccc(N2CCCCC2)cc1` belongs > 10 µM.
To `COc1ccc(/C=C/C(=O)c2ccc(-c3ccccc3)cc2)cc1` belongs > 10 µM; to `CC(C)(C)c1ccc(C(=O)/C=C/c2ccc([N+](=O)[O-])s2)cc1`, 0.5 µM (≈ 0.158 µg/mL).
As to `CCCCc1ccc(C(=O)/C=C/c2ccc([N+](=O)[O-])s2)cc1`, the MIC90 was 1.64 µM (≈ 0.517 µg/mL).
To `O=C(/C=C/c1ccc([N+](=O)[O-])s1)c1ccc(N2CCOCC2)cc1` belongs 9.12 µM (≈ 3.14 µg/mL); to `COc1ccc(/C=C/C(=O)c2cccc(I)c2)cc1`, 9.47 µM (≈ 3.45 µg/mL).
To `O=C(/C=C/c1ccc([N+](=O)[O-])o1)c1cccc(Br)c1` belongs 0.18 µM (≈ 0.058 µg/mL); to `CC(C)(C)c1ccc(C(=O)/C=C/c2ccco2)cc1`, > 10 µM; to `O=C(/C=C/c1ccc([N+](=O)[O-])cc1)c1ccc(N2CCCCC2)cc1`, > 10 µM.
In turn, `COc1ccc(/C=C/C(=O)c2cccc(Br)c2)cc1` came in with an MIC90 of 9.38 µM (≈ 2.98 µg/mL).
In turn, `O=C(/C=C/c1ccc([N+](=O)[O-])o1)c1ccc(I)cc1` returned an MIC90 of 2.57 µM (≈ 0.949 µg/mL).
To `CCCCc1ccc(C(=O)/C=C/c2ccc([N+](=O)[O-])o2)cc1` belongs 0.36 µM (≈ 0.108 µg/mL).
To `O=C(/C=C/c1ccc([N+](=O)[O-])s1)c1ccc(C2CCCCC2)cc1` belongs 2.38 µM (≈ 0.813 µg/mL).
To `CSc1ccc(C(=O)/C=C/c2ccco2)cc1` belongs > 10 µM.
